Test results as given in patent US20130029970A1 (priority 2009, published 2013).
Where two headings read alike, the source gives them in different places.

Key:
human CB2 (hCB2) = target: T1, human CB2 (hCB2) (Homo sapiens, UniProt P34972); assay: 35S GTPγS binding assay, hCB2 agonist; format: biochemical
T1 construct: (cDNA clone) CNR0200000
In short: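 Agonist-stimulated [35S]GTPγS (0.1 nM) binding measured by scintillation proximity after 90 min at room temperature. Reaction buffer: 50 mM HEPES pH 7.4, 100 mM NaCl, 5 mM MgCl2, 0.001% saponin plus 20 uM GDP. Membranes (5 μg) came from transfected cells expressing hCB2 cDNA (pcDNA3.1+ vector).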

human CB1 (hCB1) = target: T2, human CB1 (hCB1) (Homo sapiens, UniProt P21554); assay: 35S GTPγS binding assay, hCB1 agonist; format: biochemical; conditions: GTPγS agonist, HEK-293 membranes; read-out: hCB1 EC50 (GTPyS ag)
T2 construct: (cDNA clone) CNR01L000
Description: cDNA expression clones for human CB1 (hCB1, Genbank Accession No. AY225225) and human CB2 (hCB2, Genbank Accession No. AY242132) expressed in vector pcDNA3.1+ were purchased from UMR cDNA Resource Center, Rolla, Mo. (Clone ID CNR01L000 for hCB1; CNR0200000 for hCB2).
Stable, HEK-293-derived cell lines that recombinantly express hCBI or hCB2 were established. In brief, the clone hCB1 (CNR IL) or hCB2 (CNR2) was transfected into human embryonic kidney cells (HEK-293) using Lipofectamine 2000 (Gibco, Cat#11668-019) according to the manufacturer's protocol. Transfected clones were isolated by single colony purification and clones were screened for receptor expression using a whole cell, ^3H—CP 55,940 radioligand binding assay. HEK-293 stable cells were maintained in Dulbecco's modified Eagles medium (DMEM) containing 10% fetal bovine serum, 2 mM L-glutamine and 0.5 mg/mL G-418.
Membranes were isolated from transfected cells as follows. Monolayers of cultured cells were washed twice with phosphate-buffered saline (PBS). Cells were scraped into 20 mM HEPES, pH 7.4, 10 mM EDTA containing complete cocktail protease inhibitors (Roche, Catalog #11 697 498 001) and were homogenized by an electric-powered mechanical probe homogenizer (Omni GLH; probe G7-195S) for 40 seconds at 7000 rpm. Homogenates were centrifuged 10 minutes at 1000×g at 4° C. The supernatant was collected and was centrifuged for 1 hour at 40,000×g. The supernatant was then decanted and the resulting pellet was re-suspended in 20 mM HEPES, pH 7.4, 5 mM MgCl2, 1 mM EDTA, 10% sucrose with complete cocktail protease inhibitors. Protein concentration of membrane suspensions were measured by Bradford Protein Assay using bovine serum albumin as the standard (BioRad catalog #500-0006). Protein concentrations of membrane suspensions were adjusted with the final buffer in the range of 5 to 10 mg/mL and were stored at −80° C. until further use.
Functional assays which monitor G-protein coupled receptor or downstream cellular responses can be used to characterize potential CB1 receptor and/or CB2 receptor agonist or antagonist activities. Direct activation (or inhibition of activation) can be monitored using a GTPγS assay (membrane-based assay) or cAMP assay (whole cell-based assay).
^35S GTPγS binding assays were performed by incubating recombinant cell membranes prepared above (5 μg) in the presence of scintillation proximity assay beads (SPA beads, Catalog #RPNQ0252 GE Healthcare, Buckinghamshire, England) in GTPγS binding buffer [50 mM HEPES (pH 7.4), 100 mM NaCl, 5 mM MgCl2, 0.001% saponin (Sigma catalog #S4521)] supplemented with 20 uM GDP (Sigma catalog #G7127) in the presence or absence of test compound. The reaction was carried out in 96-well microplates with 0.1 nM [^35S]GTPγS (specific activity=1250 Ci/mmol; Perkin Elmer catalog #NEG030X250UC) in a final volume of 100 uL. After a 90 min room temperature incubation, the reaction was analyzed using a scintillation counter (Perkin Elmer Microbeta instrument). Binding data were analyzed using GraphPad Prism.

human CB2 receptors = target: T3, human CB2 receptors (Homo sapiens, UniProt P34972); assay: cAMP assay in HEK-293 cells, hCB2 agonist; format: cell-based
T3 construct: (cDNA clone) CNR0200000
In short: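 Stable hCB2 HEK-293 cells in HBSS/10 mM HEPES/0.1% fatty-acid-free BSA incubated 30 min at 37° C with compound; forskolin 90 uM in 3× compound mix.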

[1] = target: T4, recombinant human cannabinoid receptor CB1 (Homo sapiens, UniProt P21554); assay: Cannabinoid receptor radioligand binding assay, [3H]-CP 55,940 displacement, hCB1
T4 construct: (cDNA clone) CNR01L000
In short: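 Displacement of 0.5 nM [3H]-CP 55,940 (1 μM unlabeled CP 55,940 for nonspecific) measured by filtration and scintillation counting. Binding ran 90 min at room temperature in pH 7.5 Tris buffer with 0.1% fatty-acid-free BSA, using recombinant hCB1 HEK-293 membranes at 2-10 μg protein.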

human CB1 receptors = target: T5, human CB1 receptors (Homo sapiens, UniProt P21554); assay: cAMP assay in HEK-293 cells, hCB1 agonist; format: cell-based; conditions: inhibition of forskolin-stimulated cAMP, HEK-293 cells
T5 construct: (cDNA clone) CNR01L000
In short: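 Agonist EC50 taken as concentration giving half inhibition of forskolin-driven cAMP, normalized to forskolin maximum, from sigmoidal curves. Whole HEK-293 cells stably expressing hCB1, in HEPES/BSA-containing HBSS, exposed 30 min at 37° C. to compound with forskolin (90 uM in 3× dilution); cAMP read after lysis.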

[2] = target: T6, recombinant human cannabinoid receptor CB2 (Homo sapiens, UniProt P34972); assay: Cannabinoid receptor radioligand binding assay, [3H]-CP 55,940 displacement, hCB2
T6 construct: (cDNA clone) CNR0200000
In short: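 Receptor source: membrane pellet (40,000×g) from transfected cells, stored in HEPES pH 7.4/MgCl2/EDTA/sucrose buffer.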

[3] = system: PBQ-induced writhing in the mouse; assay: Phenylbenzoquinone-induced (PBQ) writhing model
[4] = GTPγS agonist, HEK-293 membranes, read-out: hCB2 EC50 (GTPyS ag)

T2 sequence (P21554 whole entry): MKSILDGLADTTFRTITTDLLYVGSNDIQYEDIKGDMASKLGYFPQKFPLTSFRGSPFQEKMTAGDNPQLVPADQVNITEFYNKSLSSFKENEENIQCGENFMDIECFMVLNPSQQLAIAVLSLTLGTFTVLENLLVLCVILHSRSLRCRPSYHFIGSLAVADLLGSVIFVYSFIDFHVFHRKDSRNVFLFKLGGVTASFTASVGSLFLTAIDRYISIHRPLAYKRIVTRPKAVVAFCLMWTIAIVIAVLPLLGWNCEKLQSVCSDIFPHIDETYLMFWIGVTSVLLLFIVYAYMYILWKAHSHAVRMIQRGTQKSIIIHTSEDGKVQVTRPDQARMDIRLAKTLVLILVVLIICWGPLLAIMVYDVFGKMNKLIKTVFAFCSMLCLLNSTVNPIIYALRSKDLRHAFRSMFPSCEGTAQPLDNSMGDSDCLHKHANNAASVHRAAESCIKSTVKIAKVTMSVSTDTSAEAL
T4 sequence (P21554 whole entry): as above
T3 sequence (P34972 whole entry): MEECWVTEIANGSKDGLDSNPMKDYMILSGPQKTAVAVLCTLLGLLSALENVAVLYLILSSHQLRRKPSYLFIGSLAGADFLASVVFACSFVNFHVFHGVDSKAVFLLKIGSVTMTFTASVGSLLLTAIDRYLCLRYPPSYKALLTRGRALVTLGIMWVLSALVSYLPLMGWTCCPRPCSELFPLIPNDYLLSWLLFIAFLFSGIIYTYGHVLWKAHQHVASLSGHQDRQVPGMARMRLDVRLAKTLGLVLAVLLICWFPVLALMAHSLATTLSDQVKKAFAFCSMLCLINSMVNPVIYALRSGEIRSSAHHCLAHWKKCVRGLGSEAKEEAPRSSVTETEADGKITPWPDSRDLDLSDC
T1 sequence (P34972 whole entry): as above
T5 sequence (P21554 whole entry): as the sequence (P21554 whole entry) above
T6 sequence (P34972 whole entry): as the sequence (P34972 whole entry) above

With `COc1ccc(C(=O)c2cc3cc(C)n(CCN4CCC(F)(F)CC4)c3s2)cn1` [Compound 152, (6-(2-(4,4-difluoropiperidin-1-yl)ethyl)-5-methyl-6H-thieno[2,3-b]pyrrol-2-yl)(6-methoxypyridin-3-yl)methanone] the EC50 (human CB2 (hCB2); [4]) was less than 100 nM, the EC50 (human CB1 (hCB1)) was 1000 to 10000 nM and the EC50 (human CB2 receptors; inhibition of forskolin-stimulated cAMP, HEK-293 cells, read-out: hCB2 EC50 (cAMP ag)) was less than 100 nM. It also gave an IC50 [1] of less than 100 nM.
With `COc1ccc(C(=O)c2cc3cc(C)n(CCCNS(=O)(=O)C(F)(F)F)c3s2)cc1` [Compound 154, 1,1,1-trifluoro-N-(3-(2-(4-methoxybenzoyl)-5-methyl-6H-thieno[2,3-b]pyrrol-6-yl)propyl)methanesulfonamide] the EC50 (human CB2 (hCB2)) was 1000 to 10000 nM, the EC50 (human CB1 (hCB1)) was greater than 10000 nM and the EC50 (human CB2 receptors) was 100 to 1000 nM. For the same compound, the IC50 [1] was 158 nM.
`COc1ccc(C(=O)c2cc3cc(C)n(CCN4CC5CC4CO5)c3s2)cn1` (centres unmarked) [Compound 169, (6-(2-(2-oxa-5-azabicyclo[2.2.1]heptan-5-yl)ethyl)-5-methyl-6H-thieno[2,3-b]pyrrol-2-yl)(6-methoxypyridin-3-yl)methanone] was tested, and the EC50 (human CB2 (hCB2); [4]) was 1000 to 10000 nM, the EC50 (human CB1 (hCB1)) was greater than 10000 nM and the “hCB1 EC50 (cAMP ag, nM)” value (human CB1 receptors) was “NS (NS means “Not Significant,” which means less than 30% agonist activity when compared to the positive control.)”. The IC50 [1] was 100 to 1000 nM.
Compound `COc1ccc(C(=O)c2cc3cc(C)n(CC4CCCCO4)c3s2)cn1` (centres unmarked) [Compound 173, (6-methoxypyridin-3-yl)(5-methyl-6-((tetrahydro-2H-pyran-2-yl)methyl)-6H-thieno[2,3-b]pyrrol-2-yl)methanone] has an EC50 (human CB2 (hCB2)) of 100 to 1000 nM, an EC50 (human CB1 (hCB1)) of 1000 to 10000 nM and an EC50 (human CB2 receptors) of less than 100 nM. The IC50 [1] was less than 100 nM.
In the case of `COc1ccc(C(=O)c2cc3cc(C)n(CC4CCSCC4)c3s2)cn1` [Compound 175, (6-methoxypyridin-3-yl)(5-methyl-6-((tetrahydro-2H-thiopyran-4-yl)methyl)-6H-thieno[2,3-b]pyrrol-2-yl)methanone], the EC50 (human CB2 (hCB2)) is reported as less than 100 nM, the EC50 (human CB1 (hCB1)) is reported as 100 to 1000 nM and the EC50 (human CB2 receptors) is reported as less than 100 nM. The IC50 [2] was 1000 to 10000 nM and the IC50 [1] was less than 100 nM.
Work on `COc1cc(F)c(C(=O)c2cc3cc(C)n(CC4CCOCC4)c3s2)c(F)c1` [Compound 180, (2,6-difluoro-4-methoxyphenyl)(5-methyl-6-((tetrahydro-2H-pyran-4-yl)methyl)-6H-thieno[2,3-b]pyrrol-2-yl)methanone] yielded an EC50 (human CB2 (hCB2)) of less than 100 nM, an EC50 (human CB1 (hCB1)) of 1000 to 10000 nM and an EC50 (human CB2 receptors) of less than 100 nM. For the same compound, the IC50 [1] was 100 to 1000 nM.
With `Cc1cc2cc(C(=O)c3cccc(Cl)c3Cl)sc2n1CCN1CCOCC1` [Compound I-1] the “Number of Writhes” value ([3]; Dose 30, IP) was 0.4 ± 0.31 and the “Number of Writhes” value ([3]; Dose 30, PO) was 7.5 ± 1.91.
`Cc1cc2cc(C(=O)c3ccc(Cl)cc3)sc2n1CCN1CCOCC1` [Compound I-6] was tested, and the “Number of Writhes” value ([3]; Dose 30, PO) was 3.7 ± 0.7.
In the case of `Cc1cc2cc(C(=O)c3ccc(Cl)cc3Cl)sc2n1CCN1CCOCC1` [Compound I-10], the “Number of Writhes” value ([3]; Dose 30, PO) is reported as 3.7 ± 0.7.
In the case of `Cc1cc2cc(C(=O)c3ccccn3)sc2n1CCN1CCOCC1` [Compound I-16], the “Number of Writhes” value ([3]; Dose 30, IP) is reported as 10.0 ± 2.76.
`CCS(=O)(=O)n1c(C)cc2cc(C(=O)c3cccc(Cl)c3Cl)sc21` [Compound I-25] was tested, and the “Number of Writhes” value ([3]; Dose 30, IP) was 5.9 ± 2.46.
With `Cc1cc2cc(C(=O)c3ccncn3)sc2n1CCN1CCOCC1` [Compound I-34] the “Number of Writhes” value ([3]; Dose 30, IP) was 3.4 ± 0.97.
For `Cc1cc2cc(C(=O)c3cccc(Cl)c3Cl)sc2n1CCCNS(C)(=O)=O` [Compound I-37], the “Number of Writhes” value ([3]; Dose 30, PO) was 13.0 ± 1.65.
With `Cc1cc2cc(C(=O)c3cccc(Cl)c3Cl)sc2n1S(=O)(=O)N(C)C` [Compound I-41] the “Number of Writhes” value ([3]; Dose 30, IP) was 5.91 ± 2.04.
For `CCS(=O)(=O)n1c(C)cc2cc(C(=O)c3cccnc3Cl)sc21` [Compound I-43], the “Number of Writhes” value ([3]; Dose 30, PO) was 13.8 ± 1.88.
`COc1ccc(C(=O)c2cc3cc(C)n(CC4CCOCC4)c3s2)cn1` [Compound I-144] was tested, and the “Number of Writhes” value ([3]; Dose 3, PO) was 5.04 ± 1.8, the “Number of Writhes” value ([3]; Dose 10, PO) was 3.24 ± 1.08 and the “Number of Writhes” value ([3]; Dose 30, PO) was 1.8 ± 0.72.
